Source: patent US4965270A, “Purine derivatives” (Beecham Group p.l.c., priority 1989, dated 1990)
Values after ≈ are worked out from the molar mass of the structure shown.

Tests used:
Format in all cases: cell-based
[1] = tested on: visna virus (strain K184); test: CPE inhibition test (established monolayer), visna virus; details: Visna-maedi virus; K184 strain in SCP cells; minimum concentration giving complete protection of the cell monolayers
Description: 4. CPE Inhibition Test (Established Monolayer) for Lentiviruses
3×10^4 sheep choroid plexus (SCP) cells were plated into individual wells of a 96 well microtitre plate in 100 μl of Eagle's MEM with Hanks salts containing 10% heat inactivated foetal calf serum (FCS). When monolayers had become established (after 1 or 2 days growth) they were washed with 200 μl of maintenance medium (Eagle's MEM with Hanks salts containing 0.5% FCS) and infected with 100μl of visna virus (strain K184) in maintenance medium (30 TCID50/ ml). Test samples were diluted with maintenance medium in further 96 well microtitre plates over the range 200-0.09 μg/ml by 3-fold dilution steps. 100 μl of the diluted samples was then transferred directly onto virus-infected monolayers (final concentration range therefore 100-0.045 μg/ml) and incubated at 37° C. in a humidified, 5% CO2 incubation until virus-induced CPE was maximal in the untreated virus-infected controls (usually 12-14 days). The plates were fixed with formal saline and stained with crystal violet.
Virus-induced CPE was then scored microscopically and the minimum concentration of sample giving complete protection of the cell monolayers (MIC) determined.

[2] = tested on: herpes simplex virus 1, strain SC16; test: CPE inhibition test (replicating cells), herpes simplex virus 1 (strain SC16); details: Human alphaherpesvirus 1, SC16, MRC5, SC16 strain in MRC-5 cells; each figure is a single test; read-out: IC50, Herpes Simplex Type 1 virus
Description: 3. CPE Inhibition Test (Replicating Cells) for Herpes Simplex Virus 1 MRC-5 cells (in Eagles MEM containing 5% newborn calf serum) were infected in suspension with herpes simplex virus 1, strain SC16 (approximately one infectious particle per 10 cells). One hundred microliters of the infected cell suspension (containing approximately 2× 10^4 cells) were dispensed into each well of a 96 well microtitre plate containing an equal volume of the test drug in medium (Eagles MEM containing 5% newborn calf serum) at concentrations ranging from 200 to 0.09 μg/ml (3-fold dilution steps); final concentrations therefore ranged between 100 to 0.045 μg/ml. The plates were then incubated at 37° C. in a humidified atmosphere of 5% CO2 for 3 days when the virus-induced cytopathic effect (CPE) in the control wells reached 100%. The plates were fixed in formal saline and stained with carbol fuchsin. […] Plates of uninfected cells were set up in parallel to determine the minimum concentration of test compound which caused cytotoxicity.

[3] = tested on: herpes simplex virus 2 (HSV-2; strain MS); test: Plaque reduction test, herpes simplex virus 2 (strain MS); details: Human alphaherpesvirus 2, MRC5, MS strain in MRC-5 cells; each figure is a single test; read-out: IC50, Herpes Simplex Type 2 virus
Description: Plaque Reduction Test for Heroes Simplex viruses 1 and 2. Cells (vero or MRC-5) were grown to confluence in 24 well multi-dishes (well diameter 1.5 cm). The drained cell monolayers were each infected with approximately 50 infectious particles of herpes simplex virus 1 (HSV-1; strain HFEM) or herpes simplex virus 2 (HSV-2; strain MS) in 100 μof phosphate-bufferedsaline. The virus was adsorbed for 1 hour at room temperature. After adsorption, residual inoculum was removed from each well and replaced with 0.5ml of Eagle's MEM containing 5% newborn calf serum and 0.9% agarose (A37). Once the agarose had set, dilutions of the test compound, which had been prepared in Eagle's MEM (containing 5% newborn calf serum), were added, each well receiving 0.5ml of liquid overlay. The test compound was diluted to give the following series of […] concentrations: 200, 60, 20, 6 . . . 0.06 μg/ml; final concentrations in the assay ranged, therefore, between 100 μg/ml and 0.03 μg/ml. […]
Cultures from 1 and 2 were fixed in formal saline, the agarose overlays were carefully washed off, and then the cell monolayers were stained with carbol fuchsin. […] In addition, the monolayers were examined for evidence of drug-induced cytotoxicity; the minimum concentration at which cytotoxicity occurs was recorded.

`Nc1nc2c(ncn2OCCCO)c(=O)[nH]1` [Example 1, 9-(3-Hydroxyprop-1-oxy)guanine] gave an MIC [1] of 3 µg/mL (≈ 13.3 µM).

For `Nc1nc2c(ncn2OCC(CO)CO)c(=O)[nH]1` [Example 5, 9-(3-Hydroxy-2-hydroxymethylprop-1-oxy)guanine], the MIC [1] was 0.1 µg/mL (≈ 0.392 µM).

Work on `Nc1nc2c(ncn2OCC(O)CO)c(=O)[nH]1` (stereo not shown) [Example 6, 9-(2,3-Dihydroxyprop-1-oxy)guanine] yielded an MIC [1] of 10 µg/mL (≈ 41.5 µM).

With `Nc1nc2c(ncn2OC(CO)CCO)c(=O)[nH]1` (stereo not shown) [Example 8, 9-(1,4-Dihydroxybut-2-oxy)guanine] the MIC [1] was 30 µg/mL (≈ 118 µM).

Work on `Nc1nc2c(ncn2OC[C@@H](O)CO)c(=O)[nH]1` [Example 31, (S)-9-(2,3-Dihydroxyprop-1-oxy)guanine] yielded an IC50 [2] of 0.7 µg/mL (≈ 2.9 µM), an IC50 [3] of 0.06 µg/mL (≈ 0.249 µM) and an MIC [1] of 10 µg/mL (≈ 41.5 µM).
